Tested on: genes specific for sensitization (BRAK, CTSS, DAPK2, FABP4, HSP27, IL18, HSP90, IL1R2, TPSAB1, CXCR1, DEFB1, DHFR, EHF, IVL, KRT4, MELANA, NGAL, PDZK1IP1, PI3 …)
Experiment: Expression of the other (non-ARE) sensitization-specific genes in EPISKIN reconstructed skin (quantitative RT-PCR)
Assay type: cell-based, human

With Oc1ccc(O)cc1 [Hydroquinone] the “BRAK expression compared to control” value (0.1%) was 0.7, the “BRAK grade (NUMBER OF GENES)” value (0.1%) was 0 (if this expression is lower, the grade is 0) and the “CTSS expression compared to control” value (0.1%) was 0.7. The “CTSS grade (NUMBER OF GENES)” value (0.1%) was 0 (if this expression is lower, the grade is 0), the “CXCR1 expression compared to control” value (0.1%) was 2.9 and the “CXCR1 grade (NUMBER OF GENES)” value (0.1%) was 1 (If the expression is greater than 1.3 compared to the control, a grade of 11s given). The “DAPK2 expression compared to control” value (0.1%) was 1.1, the “DAPK2 grade (NUMBER OF GENES)” value (0.1%) was 0 (if this expression is lower, the grade is 0) and the “DEFB1 expression compared to control” value (0.1%) was 1.7. The “DEFB1 grade (NUMBER OF GENES)” value (0.1%) was 1 (If the expression is greater than 1.3 compared to the control, a grade of 11s given), the “DHFR expression compared to control” value (0.1%) was 0.4 and the “DHFR grade (NUMBER OF GENES)” value (0.1%) was 0 (if this expression is lower, the grade is 0). The “EHF expression compared to control” value (0.1%) was 1.2, the “EHF grade (NUMBER OF GENES)” value (0.1%) was 0 (if this expression is lower, the grade is 0) and the “FABP4 expression compared to control” value (0.1%) was 1.1. The “FABP4 grade (NUMBER OF GENES)” value (0.1%) was 0 (if this expression is lower, the grade is 0), the “HSP27 expression compared to control” value (0.1%) was 0.8 and the “HSP27 grade (NUMBER OF GENES)” value (0.1%) was 0 (if this expression is lower, the grade is 0). The “HSP90 expression compared to control” value (0.1%) was 1.3, the “HSP90 grade (NUMBER OF GENES)” value (0.1%) was 0 (if this expression is lower, the grade is 0) and the “IL18 expression compared to control” value (0.1%) was 0.8. The “IL18 grade (NUMBER OF GENES)” value (0.1%) was 0 (if this expression is lower, the grade is 0), the “IVL expression compared to control” value (0.1%) was 1.6 and the “IVL grade (NUMBER OF GENES)” value (0.1%) was 1 (If the expression is greater than 1.3 compared to the control, a grade of 11s given). The “KRT4 expression compared to control” value (0.1%) was 2.0, the “KRT4 grade (NUMBER OF GENES)” value (0.1%) was 1 (If the expression is greater than 1.3 compared to the control, a grade of 11s given) and the “MELANA expression compared to control” value (0.1%) was 0.7. The “MELANA grade (NUMBER OF GENES)” value (0.1%) was 0 (if this expression is lower, the grade is 0), the “NGAL expression compared to control” value (0.1%) was 1.5 and the “NGAL grade (NUMBER OF GENES)” value (0.1%) was 1 (If the expression is greater than 1.3 compared to the control, a grade of 11s given). For the same compound, the “P13 expression compared to control” value (0.1%) was 1.1, the “P13 grade (NUMBER OF GENES)” value (0.1%) was 0 (if this expression is lower, the grade is 0) and the “PDZK1iP1 expression compared to control” value (0.1%) was 1.2. For the same compound, the “PDZK1iP1 grade (NUMBER OF GENES)” value (0.1%) was 0 (if this expression is lower, the grade is 0), the “SENS >1.3 (NUMBER OF GENES)” value (0.1%) was 2 and the “SERPINB3 expression compared to control” value (0.1%) was 1.1. The “SERPINB3 grade (NUMBER OF GENES)” value (0.1%) was 0 (if this expression is lower, the grade is 0), the “TOTAL SENS (NUMBER OF GENES)” value (0.1%) was 5 and the “BRAK expression compared to control” value (1%) was 0.8. The “BRAK grade (NUMBER OF GENES)” value (1%) was 0 (if this expression is lower, the grade is 0), the “CTSS expression compared to control” value (1%) was 1.2 and the “CTSS grade (NUMBER OF GENES)” value (1%) was 0 (if this expression is lower, the grade is 0). The “CXCR1 expression compared to control” value (1%) was 2.8, the “CXCR1 grade (NUMBER OF GENES)” value (1%) was 1 (If the expression is greater than 1.3 compared to the control, a grade of 11s given) and the “DAPK2 expression compared to control” value (1%) was 1.2. For the same compound, the “DAPK2 grade (NUMBER OF GENES)” value (1%) was 0 (if this expression is lower, the grade is 0), the “DEFB1 expression compared to control” value (1%) was 1.1 and the “DEFB1 grade (NUMBER OF GENES)” value (1%) was 0 (if this expression is lower, the grade is 0). The “DHFR expression compared to control” value (1%) was 0.8, the “DHFR grade (NUMBER OF GENES)” value (1%) was 0 (if this expression is lower, the grade is 0) and the “EHF expression compared to control” value (1%) was 1.1. The “EHF grade (NUMBER OF GENES)” value (1%) was 0 (if this expression is lower, the grade is 0), the “FABP4 expression compared to control” value (1%) was 1.1 and the “FABP4 grade (NUMBER OF GENES)” value (1%) was 0 (if this expression is lower, the grade is 0). For the same compound, the “HSP27 expression compared to control” value (1%) was 0.9, the “HSP27 grade (NUMBER OF GENES)” value (1%) was 0 (if this expression is lower, the grade is 0) and the “HSP90 expression compared to control” value (1%) was 1.1. For the same compound, the “HSP90 grade (NUMBER OF GENES)” value (1%) was 0 (if this expression is lower, the grade is 0), the “IL18 expression compared to control” value (1%) was 0.8 and the “IL18 grade (NUMBER OF GENES)” value (1%) was 0 (if this expression is lower, the grade is 0). The “IVL expression compared to control” value (1%) was 1.5, the “IVL grade (NUMBER OF GENES)” value (1%) was 1 (If the expression is greater than 1.3 compared to the control, a grade of 11s given) and the “KRT4 expression compared to control” value (1%) was 1.5. For the same compound, the “KRT4 grade (NUMBER OF GENES)” value (1%) was 1 (If the expression is greater than 1.3 compared to the control, a grade of 11s given), the “MELANA expression compared to control” value (1%) was 0.7 and the “MELANA grade (NUMBER OF GENES)” value (1%) was 0 (if this expression is lower, the grade is 0). For the same compound, the “NGAL expression compared to control” value (1%) was 1.7, the “NGAL grade (NUMBER OF GENES)” value (1%) was 1 (If the expression is greater than 1.3 compared to the control, a grade of 11s given) and the “P13 expression compared to control” value (1%) was 1.2. For the same compound, the “P13 grade (NUMBER OF GENES)” value (1%) was 0 (if this expression is lower, the grade is 0), the “PDZK1iP1 expression compared to control” value (1%) was 1.0 and the “PDZK1iP1 grade (NUMBER OF GENES)” value (1%) was 0 (if this expression is lower, the grade is 0). For the same compound, the “SENS >1.3 (NUMBER OF GENES)” value (1%) was 5, the “SERPINB3 expression compared to control” value (1%) was 1.0 and the “SERPINB3 grade (NUMBER OF GENES)” value (1%) was 0 (if this expression is lower, the grade is 0). For the same compound, the “TOTAL SENS (NUMBER OF GENES)” value (1%) was 5.
